The results in this text go back to BindingDB's records for doi:10.1021/jm00210a006 (1979).

One test concerns the target Plasminogen (Homo sapiens, UniProt P00747). The test can be described thus: Competitive inhibition of esterase activity of human plasmin assessed as assessed as decrease in p-nitrophenol production using N-Z-L-Tyr-ONp as substrate by spectrophotometric analysis.
Test [1] deals with T1, Complement C1s subcomponent (Homo sapiens, UniProt P09871).
T1 sequence (P09871 whole entry): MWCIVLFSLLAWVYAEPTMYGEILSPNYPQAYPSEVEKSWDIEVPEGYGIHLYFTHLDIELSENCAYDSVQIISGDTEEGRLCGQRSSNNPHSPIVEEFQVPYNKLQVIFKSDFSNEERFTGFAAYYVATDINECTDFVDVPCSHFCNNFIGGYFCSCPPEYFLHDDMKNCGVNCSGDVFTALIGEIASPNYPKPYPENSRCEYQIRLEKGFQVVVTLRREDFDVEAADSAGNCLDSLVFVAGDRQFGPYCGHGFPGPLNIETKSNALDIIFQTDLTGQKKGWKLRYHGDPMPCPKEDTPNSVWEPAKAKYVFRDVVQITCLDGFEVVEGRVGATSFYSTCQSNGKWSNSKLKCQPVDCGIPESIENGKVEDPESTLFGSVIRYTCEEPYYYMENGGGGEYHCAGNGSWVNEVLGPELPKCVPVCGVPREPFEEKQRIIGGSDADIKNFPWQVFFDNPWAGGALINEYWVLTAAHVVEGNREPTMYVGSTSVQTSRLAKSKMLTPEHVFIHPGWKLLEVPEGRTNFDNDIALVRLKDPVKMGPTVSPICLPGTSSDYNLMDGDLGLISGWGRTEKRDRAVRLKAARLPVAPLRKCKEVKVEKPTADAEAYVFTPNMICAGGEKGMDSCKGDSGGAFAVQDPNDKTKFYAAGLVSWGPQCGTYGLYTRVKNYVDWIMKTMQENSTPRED
The test can be described thus: Competitive inhibition of esterase activity of human activated C1s subunit of first complement component assessed as decrease in p-nitrophenol production using N-Z-L-Tyr-ONp as substrate by spectrophotometric analysis.

In test [2] the target is T1, Complement C1s subcomponent. Briefly: Competitive inhibition of esterase activity of human activated C1s subunit of first complement component assessed as decrease in p-nitrophenol production using N-Z-L-Lys-ONp as substrate by spectrophotometric analysis.

Where “and” joins values, the source holds several entries; their conditions need not be identical. Equal values may be shown once.

Sequence of Plasminogen (P00747 97-580 limits assumed): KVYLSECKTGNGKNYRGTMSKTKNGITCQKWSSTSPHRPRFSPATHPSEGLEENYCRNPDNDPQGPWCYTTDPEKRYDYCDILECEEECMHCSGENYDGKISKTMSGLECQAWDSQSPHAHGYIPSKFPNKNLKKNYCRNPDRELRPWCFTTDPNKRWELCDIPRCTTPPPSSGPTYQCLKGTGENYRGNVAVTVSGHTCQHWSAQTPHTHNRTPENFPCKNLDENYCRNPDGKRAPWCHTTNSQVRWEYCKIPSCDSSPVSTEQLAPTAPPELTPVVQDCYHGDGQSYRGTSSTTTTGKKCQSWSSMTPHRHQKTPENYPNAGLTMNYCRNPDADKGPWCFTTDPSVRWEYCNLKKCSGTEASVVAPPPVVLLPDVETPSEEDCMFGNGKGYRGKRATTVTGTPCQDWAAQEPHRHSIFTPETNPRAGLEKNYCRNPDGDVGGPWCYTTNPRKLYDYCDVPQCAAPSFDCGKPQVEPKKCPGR
Sequence of Plasminogen (P00747 581-810 limits assumed): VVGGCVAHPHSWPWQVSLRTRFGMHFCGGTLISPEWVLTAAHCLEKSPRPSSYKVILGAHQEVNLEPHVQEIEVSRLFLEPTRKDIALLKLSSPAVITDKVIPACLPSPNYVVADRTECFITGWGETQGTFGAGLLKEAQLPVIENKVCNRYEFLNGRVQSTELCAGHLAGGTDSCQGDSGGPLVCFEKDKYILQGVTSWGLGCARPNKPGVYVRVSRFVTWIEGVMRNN

As for `N=C(N)c1cccc(Cc2ccccc2)c1`, the Ki on Plasminogen is 630 µM. On the same count and under the same terms, as for `N=C(N)c1cccc(N)c1`, the figure is 125 µM and 501 µM and 100 µM and 316 µM. Turning to `COc1cccc(C(=N)N)c1`, the Ki in test [1] is 160 µM. For `Cc1ccc(C(=N)N)cc1C`, in test [1], the inhibition constant Ki was 9990 µM and 1600 µM and 4000 µM and 6300 µM. With `N=C(N)c1cccc(Br)c1`, the Ki in test [1] amounted to 100 µM.

Turning to `Cc1cc(C)cc(C(=N)N)c1`, the Ki in test [1] is 630 µM and 250 µM and 79 µM. The same measure, in the same setting: with `N=C(N)c1ccc(CC(=O)C(=O)O)cc1` the figure was 158 µM and 125 µM and 99.9 µM and 79.4 µM. Same read-out and setting: as for `N=C(N)c1cccc(OCCCOc2ccccc2)c1`, the figure is 12.5 µM and 15.8 µM and 20 µM and 10 µM.

As for `N=C(N)c1cccc(CC(=O)C(=O)O)c1`, in test [2], the Ki amounted to 2510 µM.
